The text below walks through data of patent publication US5817669A, “Compounds, processes for the preparation thereof and anti-tumor agents” (Dainippon Pharmaceutical Co., Ltd., priority 1994, dated 1998).

This assay concerns human cancer cells (KB, MX-1, WiDr, HMV-2, LX-1) implanted in nude mice. As to the kind of experiment: Growth inhibition of human cancer cells implanted in nude mice (Test Examples 5 to 9). The assay is classed as in vivo, human cancer cells in BALB/c nude mice. To be noted: 50 mg/kg, FIGS. 1-9 (cell line not stated). On the procedure:
In the following Test examples 5 to 9, human cancer cells were implanted in nude mice, to which test compounds dissolved in an aqueous solution containing NaOH were administered, and, thus, the degree of growth inhibition of cancer cells was observed.
FIGS. 1-9 show the variation with the lapse of days of IR.
FIGS. 10-14 show the relation between tumor weight and the lapse of days in the case where Compound 1--1 was used in Test examples 5-9. Vertical axis corresponds to tumor weight, and horizontal axis corresponds to the days which passed after the start of administration. Tumor weight was estimated from tumor diameter. The term Control in FIGS. 10-14 means tumor weight variation with days in nude mice to which, although cancer cells had been implanted, no test compounds had been administered.
In the following, there is explained schedule of administration of test compounds in nude mice. After days of × in number have passed from implantation of human cancer cells in nude mice, test compounds are intraperitoneally (ip) administered for y days, followed by wash-out periods of days of z in number. Thereafter, test compounds are administered again for y days. In this case, the cycle of administration (y days) and discontinuation (z days) is called "course". Such a schedule is denoted by marks as follows:
[(x) (y) (z) (course) (ip)]
These marks are explained below with an example. […]

With `CN[C@@H]1CN(c2ccc3c(=O)c(C(=O)O)cn(-c4nccs4)c3n2)C[C@H]1OC.Cl` (relative stereo) [Compound 1-1, 1,4-dihydro-7-(trans-3-methoxy-4-methylamino-1-pyrrolidinyl)-4-oxo-1-(2-thiazolyl)-1,8-naphthyridine-3-carboxylic acid hydrochloride], the “Tumor Growth Inhibition Rate IR % on the last day of observation” value turned out to be 91%.
